Measured values as given in patent US11744901B2, “Phage conjugates and uses thereof” (CONSIGLIO NAZIONALE DELLE RICERCHE, priority 2017, dated 2023).

How the values were obtained:
iNKT cells = details: animal model; prevents release of cytokines after recall stimulations (Sullivan and Kronenberg 2005); cited from earlier work
splenocytes = details: stated as known, cited from earlier work
B16 melanoma cells = assay: Therapeutic vaccination against B16 tumour cells; type: in vivo; details: B16 melanoma subcutaneous in C57BL/6 mice, intratumoural treatment when tumours palpable; FIG. 4
Method: C57BL/6 mice (n=5/group) were inoculated with 2.5×10^5 B16 melanoma cells kindly provided by Dr. Dellabona (Istituto scientifico San Raffaele, Milan, Sartorius R et al., 2011) subcutaneously in the left side. When the tumours became palpable, the mice were vaccinated with PBS, 2.5 micrograms aGalCer, 50 micrograms of fdWT bacteriophages or 50 micrograms of fdWT/aGalCer in a total volume of 80 microliters. Tumour growth was assessed three times a week using a caliber and reported as tumour volume (in mm^3) according to the formula (d^2×D)/2, where d and D are the minor diameter and the major one, respectively. The mice were sacrificed when the size of the tumour had exceeded 1,500 mm^3, in compliance with the established guidelines. Survival was recorded as the percentage of surviving animals.

[1] = human immunotherapy, repeated KRN7000 administration; cited from earlier work

Row | Structure (SMILES) | anergy of iNKT cells (iNKT cells) | levels of T-cell receptor (TCR) on iNKTs (splenocytes; administered intravenously to mice) | ability of splenocytes to proliferate and produce cytokines after in vitro restimulation with aGalCer (splenocytes; mice injected with soluble aGalCer, compared to naive splenocytes) | tumour growth (B16 melanoma cells) | clinical response in patients [1] | tolerability in patients [1]
1 | CCCCCCCCCCCCCCCCCCCCCCCCCC(=O)N[C@@H](CO[C@H]1O[C@H](CO)[C@H](O)[C@H](O)[C@H]1O)[C@H](O)[C@H](O)CCCCCCCCCCCCCC [aGalCer, alpha-Galactosylceramide] | induces long term cell anergy of iNKT cells | decrease | lose rapidly their ability to proliferate and produce cytokines | not able to protect animals from tumour growth | weak clinical response | 
2 | CCCCCCCCCCCCCCCCCCCCCCCCCC(=O)N[C@@H](CO[C@H]1OC(CO)[C@H](O)C(O)C1O)[C@H](O)[C@H](O)CCCCCCCCCCCCCC (stereo partly drawn) [aGalCer, alpha-Galactosylceramide] |  |  |  |  |  | well tolerated
